Test results taken from PubChem BioAssay AID1963846 (Molecular Pharmacology Branch, DTP, NCI, 2024).
Several values for one entry are separate records, joined by “and”; a condition that tells them apart may be missing. Equal values may be shown once.

System: 454973-116-R2-J3-PDC complex spheroid viability
Experiment: Anticancer human tumor 454973-116-R2-J3-PDC patient-derived pancreatic carcinoma cell line growth inhibition [POLQ]
Settings: for viability, T/C: stronger effect = lower value
Procedure: Multicellular complex tumor spheroid response to Polymerase (POL) inhibitors (novobiocin, ART-558, RP6685) in combination with a variety of drugs and investigational agents in selected tumor cell lines
The POL inhibitors (novobiocin, ART-558, and RP6685) were evaluated both individually and in combination with standard of care and investigational anticancer small molecules within a complex spheroid model of solid tumors. . Complex spheroids include a stromal component modeled by human endothelial cells (HUVEC) and fibroblasts modeled by human mesenchymal stem cells (MSCs). The concentration ranges selected for each drug and investigational agent were based upon clinically achievable concentrations if the clinical Cmax of the agent was known.
Compounds. The drugs and investigational agents: novobiocin (NSC847541), ART-558 (NSC835418), RP-6685 (NSC848927), peposertib (NSC802822), ceralasertib (NSC780249), elimusertib (NSC800525), camonsertib (NSC841442), AZD-1390 (NSC803789), olaparib (NSC753686), talazoparib (NSC767125), rucaparib (NSC756644), sotorasib (NSC818433), MRTX-1133 (NSC836407), SN-38 (NSC673596), topotecan (NSC609699), epotoside (NSC141540), doxorubicin (NSC123127), gemcitabine (NSC613327), 5-fluorouracil (NSC19893), paclitaxel (NSC125973), vemurafenib (NSC761431), MSA-2 (NSC828583), SN-011 (NSC837082), adavosertib (NSC754352), prexasertib (NSC758257), carboplatin (NSC241240) and oxaliplatin (NSC266046), were obtained from the National Cancer Institute (NCI) Developmental Therapeutics Program Chemical Repository (21). The FDA-approved anticancer drug set is available from the Developmental Therapeutics Program at https://dtp.cancer.gov/organization/dscb/obtaining/. […] The stock solutions were prepared in dimethyl sulfoxide (DMSO, Sigma-Aldrich, St. Louis, MO, cat. D2650), except for the platinum compounds which were prepared in saline (Quality Biological, Gaithersburg, MD, cat. 114-055-101), at 800-fold the tested concentration and stored at -70 degrees C prior to their use. All drugs and investigational agents were tested over a range starting from a high concentration at or near the clinical Cmax and decreasing in half-log increments. If the clinical Cmax for an agent had not been determined, the highest concentration tested was 10 microM, except for SN-38, which was tested at a high concentration of 1 microM.
Cell Culture. All cells were maintained in an incubator at 37 degrees C and 5% CO2 with 95% humidity. The PDC lines were cultured according to standard operating procedures established by the NCI PDMR (https://pdmr.cancer.gov). Table 3 of the manuscript, lists the cell lines along with the number of the three cell types plated to form the mct-spheroids and media for tumor cell growth. After thawing, all PDC lines, except 997537-175-T-J1-PDC and 415267-285-R-J2-PDC, were cultured in Matrigel-coated flasks prepared with a working solution of 1X Ham's F-12 nutrient mix, without supplementation (Thermo Fisher Scientific, cat. 11765054), 100 U/mL penicillin-streptomycin (Thermo Fisher Scientific, cat. 15140122), and 2.5% Matrigel (Corning Inc., Corning, NY, cat. 354248) for the first three passages. The two PDC lines 997537-175-T-J1-PDC and 415267-285-R-J2-PDC were cultured on uncoated flasks. The 857933-349-R-J2-PDC line was cultured in 6C/Colon 1B media containing advanced DMEM/F-12 (Thermo Fisher Scientific, cat. 12634028), 10 mM HEPES (Thermo Fisher Scientific, cat. 15630080), 1X GlutaMAX supplement (Thermo Fisher Scientific, cat. 35050061), 0.1 mg/mL primocin (InvivoGen, San Diego, CA, cat. ant-pm-2), 10% defined fetal bovine serum, heat inactivated (HyClone Laboratories Inc., Logan, UT, cat. SH30070.03HI), 50% L-WRN conditioned media (ATCC, cat. CRL-3276), 1.25 mM N-Acetyl-L-cysteine (Sigma-Aldrich, cat. A9165), 10 mM nicotinamide (Sigma-Aldrich, cat. N0636), 1X B-27 supplement (Thermo Fisher Scientific, cat. 17504044), 1X N-2 supplement (Thermo Fisher Scientific, cat. […]

[1] = curve of first compound, second compound 0.0316 µM
[2] = curve of first compound, second compound 0.1 µM
[3] = curve of first compound, second compound 0.316 µM
[4] = curve of first compound, second compound 1 µM
[5] = curve of first compound, second compound 3.16 µM
[6] = curve of first compound, second compound 10 µM
[7] = second compound 0.0316 µM, first compound 0.0316 µM
[8] = second compound 0.0316 µM, first compound 0.1 µM
[9] = second compound 0.1 µM, first compound 0.0316 µM
[10] = second compound 0.1 µM, first compound 0.1 µM
[11] = second compound 0.316 µM, first compound 0.0316 µM
[12] = second compound 0.316 µM, first compound 0.1 µM
[13] = second compound 1 µM, first compound 0.0316 µM
[14] = second compound 1 µM, first compound 0.1 µM
[15] = second compound 3.16 µM, first compound 0.0316 µM
[16] = second compound 3.16 µM, first compound 0.1 µM
[17] = second compound 10 µM, first compound 0.0316 µM
[18] = second compound 10 µM, first compound 0.1 µM
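Note: spheroids exposed to drugs for seven days before measurement.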
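Throughout, for viability, T/C: percent viability relative to DMSO vehicle control wells taken as 100%.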

SMILES: CC[C@@]1(O)C(=O)OCc2c1cc1n(c2=O)Cc2cc3c(CN(C)C)c(O)ccc3nc2-1 + Cc1cccc(N(C)C(=O)C2C(O)CCN2c2nc(C)cc(C(F)(F)F)c2C#N)c1
- IC50 [1]: 18.7 nM
- IC50 [2]: 19.2 nM
- IC50 [3]: 18.1 nM
- IC50 [4]: 18.6 nM
- IC50 [5]: 16.8 nM
- IC50 [6]: 19.1 nM
- viability, T/C (second compound 0.0316 µM, first compound 0.000316 µM): 92.2%
- viability, T/C (second compound 0.0316 µM, first compound 0.001 µM): 102%
- viability, T/C (second compound 0.0316 µM, first compound 0.00316 µM): 90.5%
- viability, T/C (second compound 0.0316 µM, first compound 0.01 µM): 85.3%
- viability, T/C [7]: 20.4%
- viability, T/C [8]: 16.1%
- viability, T/C (second compound 0.1 µM, first compound 0.000316 µM): 104%
- viability, T/C (second compound 0.1 µM, first compound 0.001 µM): 104%
- viability, T/C (second compound 0.1 µM, first compound 0.00316 µM): 99.8%
- viability, T/C (second compound 0.1 µM, first compound 0.01 µM): 88.6%
- viability, T/C [9]: 20.2%
- viability, T/C [10]: 19.7%
- viability, T/C (second compound 0.316 µM, first compound 0.000316 µM): 98.3%
- viability, T/C (second compound 0.316 µM, first compound 0.001 µM): 118%
- viability, T/C (second compound 0.316 µM, first compound 0.00316 µM): 113%
- viability, T/C (second compound 0.316 µM, first compound 0.01 µM): 83.9%
- viability, T/C [11]: 18.4%
- viability, T/C [12]: 16.5%
- viability, T/C (second compound 1 µM, first compound 0.000316 µM): 103%
- viability, T/C (second compound 1 µM, first compound 0.001 µM): 106%
- viability, T/C (second compound 1 µM, first compound 0.00316 µM): 97.1%
- viability, T/C (second compound 1 µM, first compound 0.01 µM): 84.9%
- viability, T/C [13]: 19.6%
- viability, T/C [14]: 19.8%
- viability, T/C (second compound 3.16 µM, first compound 0.000316 µM): 116%
- viability, T/C (second compound 3.16 µM, first compound 0.001 µM): 106%
- viability, T/C (second compound 3.16 µM, first compound 0.00316 µM): 105%
- viability, T/C (second compound 3.16 µM, first compound 0.01 µM): 76%
- viability, T/C [15]: 16.8%
- viability, T/C [16]: 19.8%
- viability, T/C (second compound 10 µM, first compound 0.000316 µM): 107%
- viability, T/C (second compound 10 µM, first compound 0.001 µM): 96.6%
- viability, T/C (second compound 10 µM, first compound 0.00316 µM): 97.3%
- viability, T/C (second compound 10 µM, first compound 0.01 µM): 85.6%
- viability, T/C [17]: 21.3%
- viability, T/C [18]: 22.6%

SMILES: C=CC(=O)N1CCN(c2nc(=O)n(-c3c(C)ccnc3C(C)C)c3nc(-c4c(O)cccc4F)c(F)cc23)C(C)C1 (stereo not given) + Cc1cccc(N(C)C(=O)C2C(O)CCN2c2nc(C)cc(C(F)(F)F)c2C#N)c1
- IC50 [1]: > 10000 nM
- IC50 [2]: > 10000 nM
- IC50 [3]: > 10000 nM
- IC50 [4]: > 10000 nM
- IC50 [5]: > 10000 nM
- IC50 [6]: > 10000 nM
- viability, T/C [7]: 100%
- viability, T/C [8]: 99.5%
- viability, T/C (second compound 0.0316 µM, first compound 0.316 µM): 98.7%
- viability, T/C (second compound 0.0316 µM, first compound 1 µM): 115%
- viability, T/C (second compound 0.0316 µM, first compound 3.16 µM): 106%
- viability, T/C (second compound 0.0316 µM, first compound 10 µM): 109%
- viability, T/C [9]: 96.9%
- viability, T/C [10]: 101%
- viability, T/C (second compound 0.1 µM, first compound 0.316 µM): 107%
- viability, T/C (second compound 0.1 µM, first compound 1 µM): 107%
- viability, T/C (second compound 0.1 µM, first compound 3.16 µM): 110%
- viability, T/C (second compound 0.1 µM, first compound 10 µM): 115%
- viability, T/C [11]: 101%
- viability, T/C [12]: 107%
- viability, T/C (second compound 0.316 µM, first compound 0.316 µM): 108%
- viability, T/C (second compound 0.316 µM, first compound 1 µM): 106%
- viability, T/C (second compound 0.316 µM, first compound 3.16 µM): 108%
- viability, T/C (second compound 0.316 µM, first compound 10 µM): 111%
- viability, T/C [13]: 108%
- viability, T/C [14]: 102%
- viability, T/C (second compound 1 µM, first compound 0.316 µM): 115%
- viability, T/C (second compound 1 µM, first compound 1 µM): 105%
- viability, T/C (second compound 1 µM, first compound 3.16 µM): 110%
- viability, T/C (second compound 1 µM, first compound 10 µM): 110%
- viability, T/C [15]: 107%
- viability, T/C [16]: 111%
- viability, T/C (second compound 3.16 µM, first compound 0.316 µM): 103%
- viability, T/C (second compound 3.16 µM, first compound 1 µM): 118%
- viability, T/C (second compound 3.16 µM, first compound 3.16 µM): 112%
- viability, T/C (second compound 3.16 µM, first compound 10 µM): 108%
- viability, T/C [17]: 115%
- viability, T/C [18]: 102%
- viability, T/C (second compound 10 µM, first compound 0.316 µM): 109%
- viability, T/C (second compound 10 µM, first compound 1 µM): 113%
- viability, T/C (second compound 10 µM, first compound 3.16 µM): 111%
- viability, T/C (second compound 10 µM, first compound 10 µM): 109%

SMILES: CC(=O)O[C@H]1C(=O)[C@@]2(C)[C@H]([C@H](OC(=O)c3ccccc3)[C@]3(O)C[C@H](OC(=O)[C@H](O)[C@@H](NC(=O)c4ccccc4)c4ccccc4)C(C)=C1C3(C)C)[C@]1(OC(C)=O)CO[C@@H]1C[C@@H]2O
- viability, T/C (compound 0.00949 µM): 6.41% and 6.34% and 12.2%
- viability, T/C (compound 0.03 µM): 4.28% and 4.53% and 8.36%
- viability, T/C (compound 0.0949 µM): 6.3% and 3.83% and 4.72%
- viability, T/C (compound 0.3 µM): 4.7% and 3.78% and 4.01%
- viability, T/C (compound 0.949 µM): 4.44% and 4.41% and 4.87%
- viability, T/C (compound 3 µM): 4.64% and 4.24% and 4.62%
- IC50 (curve of compound): < 9.49 nM

SMILES: O=c1[nH]cc(F)c(=O)[nH]1
- viability, T/C (compound 0.0316 µM): 107% and 104% and 112%
- viability, T/C (compound 0.1 µM): 103% and 102% and 99.7%
- viability, T/C (compound 0.316 µM): 101% and 92.2% and 104%
- viability, T/C (compound 1 µM): 99.9% and 71.4% and 92.9%
- viability, T/C (compound 3.16 µM): 50.8% and 29.6% and 53.3%
- viability, T/C (compound 10 µM): 32.6% and 40.2% and 36.8%
- IC50 (curve of compound): 3340 nM and 1960 nM and 4010 nM

SMILES: CCc1cc2c(N3CCc4c(cc(Cn5ccnc5)cc4-c4cn(C)nc4C(F)(F)F)C3=O)ccnc2c(OC)n1
- viability, T/C (compound 0.0316 µM): 109% and 100% and 101%
- viability, T/C (compound 0.1 µM): 95.6% and 93% and 84.3%
- viability, T/C (compound 0.316 µM): 98.7% and 82.7% and 86.3%
- viability, T/C (compound 1 µM): 87.5% and 83.7% and 77.2%
- viability, T/C (compound 3.16 µM): 89.3% and 71.8% and 72.8%
- viability, T/C (compound 10 µM): 68% and 70.2% and 53.9%
- IC50 (curve of compound): > 10000 nM
